System: B16F10 murine melanoma
Test: Anticancer activity and survival in C57 black mice bearing s.c. B16F10 melanoma
Type: in vivo, mouse
Experimental: Twenty four C57 black mice were injected subcutaneously (s.c.) with 10^5 B16F10 murine melanoma cells as described above and then monitored daily for well-being and the presence of palpable tumours. When the tumours were palpable, mice were randomly assigned into groups of six and their tumours measured with a micrometer gauge. Tumour size and mouse body weight is recorded. Each group is then injected intra-peritoneally with either sterile saline (negative control), free doxorubicin (5 mg kg^−1) in sterile saline or dextrin-doxorubicin (11.8 wt %, 34% succinolyation) at either 5 mg kg^−1 or 10 mg kg^−1, on days 0,1 and 2. The mice were monitored daily and tumour size and body weight recorded. Once the tumour area exceeded 2.89 cm^2 the mice were culled according to UKCCCR guidelines. Mouse survival is then expressed as % T/C (test/control saline).

## COc1cccc2c1C(=O)c1c(O)c3c(c(O)c1C2=O)C[C@@](O)(C(=O)CO)C[C@@H]3O[C@H]1C[C@H](N)[C@H](O)[C@H](C)O1 [doxorubicin]
5 mg kg^-1 i.p.
  anticancer activity: not active
  body weight / toxicity: drop in body weight consistent with toxicity
5 mg kg^-1 i.p. on day 0,1,2
  Toxic deaths: 0/6
5 mg kg^-1 i.p. on day 0,1,2, N = 6
  Days survival after treatment (mean ± SD): 4.5 ± 0.5^ns days
5 mg kg^-1 i.p. on day 0,1,2, survival test/control saline
  T/C (%): 103%

Source: patent US6818630B1, “Biologically active materials” (ML Laboratories PLC, priority 1999, dated 2004)
